# From patent US20110201664A1, “Methods and Compositions for Treatment of Prostate Intraepithelial Neoplasia” (priority 2006, published 2011)
# Tested on: High Grade PIN
# Test: Treatment of a patient with High Grade PIN, repeat prostate biopsy
# Format: in vivo, human
# Conditions: person with High Grade PIN; 225 mg per day once daily, 30 doses; 12 biopsies two weeks after last dose; on Atorvastatin 20 mg daily
# Protocol: A person was diagnosed as having High Grade PIN. The diagnosis was based upon 12 biopsies which were done in conjunction with ultrasound localization of the biopsy site, with careful recording of there anatomical position. The patient was started on Bexarotene 225 mg per day. The drug was given as a single dose once daily. […] During the period of therapy the patient was on Atorvastatin 20 mg daily. During the therapy, total cholesterol was 183 mg with a reference range <200 mg/dL, triglycerides were 207 with normal being less than 150 mg/dL, thyroid stimulation hormone (TSH) was 0.07 with the reference range 0.4-5.5 mIU/L, T4 total was 7.4 with the normal range 4.5-12.0 mcg/dL. The Hepatic Function Panel was normal as was the complete blood count (CBC). Two weeks following the last dose of Bexarotene the prostate was rebiopsied with 12 biopsies taken. Six of the biopsies were taken from the putative area, the rest in an enlarging target like pattern. The repeat biopsy was negative for the presence of PIN.
smiles,measurement,value
"C=C(c1ccc(C(=O)O)cc1)c1cc2c(cc1C)C(C)(C)CCC2(C)C [Bexarotene, 4-[1-(5,6,7,8-tetrahydro-3,5,5,8,8-pentamethyl-2-naphthalenyl)ethenyl] benzoic acid]","Repeat biopsy, presence of PIN",negative
